Structures are written as SMILES.

In turn, `O=C(N[C@H]1[C@@H]2CNC[C@@H]21)C1c2ccccc2Oc2ccccc21` [Compound No. 6] had a melting point of 183 to 190 °C.

The molecule `O=C(NC[C@@H]1[C@H]2CN(CCc3ccc4c(c3)CCO4)C[C@@H]12)C1c2ccccc2Oc2ccccc21` [Compound No. 11, N-[(1α,5α,6α)-3-(2-(2,3-dihydro-benzofuran-5-yl)-ethyl)-3-aza-bicyclo[3.1.0]hex-6-ylmethyl]-9H-Xanthene-9-carboxylic acid amide] displayed a melting point of 165 °C.

Usually melting point stands for the temperature of the solid-liquid transition.

The record behind these values is patent publication US20080319002A1, “Xanthine Derivatives a Useful as Muscarinic Receptor Antagonists” (RANBAXY LABORATORIES LIMITED, priority 2004, published 2008).
